What was measured:
[1] = Binding to heparin, radiation method (pulse radiolysis); conditions: water-soluble heparin 10 μM
Protocol: The experiment consisted in studying the effect of the presence of heparin on the observed rate of scavenging the hydrated electron by the MNIC^+ cation. The studies were carried out by pulse radiolysis, using an Elektronika ELU-6E linear electron accelerator (at the Institute of Applied Radiation Chemistry, Technical University of Lodz, Poland) having an electron beam energy of 6-8 MeV, as an ionising-radiation source. A solution of water-soluble heparin at a concentration of 10 μM was used in the experiment. […]
Based on the recorded kinetic traces of decay of the hydrated electron in the presence of the MNIC^+Cl^− solutions at various concentrations, the values of the pseudo-first order rate constants were determined. The value of the second-order rate constant for the investigated reaction was determined from the slope of the linear dependence of the above-determined rate constants versus concentration. […] Then, based on the determined second-order reaction rate constant and the observed rate constant for decay of the hydrated electron in the presence of heparin and MNIC^+, the degree of binding of the tested compound to heparin was determined using the following relationship: […]

[2] = Binding to heparin, absorption method; conditions: compound 100 μM, heparin immobilised on Sepharose 25 mg/ml
Protocol: The absorption method consisted in comparing the absorption spectrum of an aqueous solution of the tested compound with the absorption spectrum of the same solution after its incubation with Sepharose immobilised heparin as a glycosaminoglycan mimicking the glycosaminoglycan receptor. The absorption spectra were recorded using a Perkin Elmer Lambda 40 spectrophotometer. The following reagents were prepared prior to the experiment: an aqueous solution of the tested compound of Example 1, namely 1-methyl-N′-(2-nitroxyethyl)nicotinamide chloride (MNIC^+Cl^−), at a concentration of 100 μM, an aqueous suspension of heparin immobilised on Sepharose at 25 mg/ml, and a solution of MNIC^+Cl^− in an aqueous suspension of heparin having the same concentrations in both the tested compound and heparin as mentioned above. Following the initial incubation of the solution of the tested compound with heparin, it was centrifuged for 6 minutes at 13,000 rpm. Then supernatant solutions above the precipitate of heparin were separated and the spectra of the solutions were recorded at the wavelength range of 200-600 nm.
The degree of binding of MNIC^+ to heparin was determined by calculating the areas under the absorption curves of the compound before and after contact with heparin, using the following relationship: […]

[3] = Ability to release NO by EPR method; conditions: preliminary investigations
Protocol: Preliminary investigations of the ability of MNIC^+Cl^− to release NO were also performed using EPR (Electron Paramagnetic Resonance) method. The results of these studies confirmed that MNIC^+Cl^− releases NO, and most likely the vasodilating activity of the compound is a consequence of the stimulation of sGC by NO thus released.

[4] = Scavenging of the hydrated electron by pulse radiolysis; type: physicochemical; conditions: no heparin added, λ=720 nm
Protocol: The experiment consisted in studying the effect of the presence of heparin on the observed rate of scavenging the hydrated electron by the MNIC^+ cation. The studies were carried out by pulse radiolysis, using an Elektronika ELU-6E linear electron accelerator (at the Institute of Applied Radiation Chemistry, Technical University of Lodz, Poland) having an electron beam energy of 6-8 MeV, as an ionising-radiation source. A solution of water-soluble heparin at a concentration of 10 μM was used in the experiment. […] Based on the recorded kinetic traces of decay of the hydrated electron in the presence of the MNIC^+Cl^− solutions at various concentrations, the values of the pseudo-first order rate constants were determined. The value of the second-order rate constant for the investigated reaction was determined from the slope of the linear dependence of the above-determined rate constants versus concentration. […] Then, based on the determined second-order reaction rate constant and the observed rate constant for decay of the hydrated electron in the presence of heparin and MNIC^+, the degree of binding of the tested compound to heparin was determined using the following relationship: […]

[5] = system: ATP-dependent potassium channels; test: Effect of potassium channel inhibitor GLB on vasodilatating activity in isolated rat aortal rings
Protocol: (§1) The vasodilating effect of MNIC^+Cl^− in aqueous solutions on isolated rat aorta was studied in the conditions close to physiological ones. 3-5 mm aortal rings with preserved endothelial function placed in a set of 6 containers a 5 ml containing the Krebs-Henseleit buffer constantly aerated with 5% CO2 in O2 and thermostated at 37° C. were suspended between two hooks connected to the force transducer for recording the ring contraction. Then, following the constriction induced by phenylephrine, the concentration-dependent vasodilating effect of MNIC^+Cl^− was investigated by measurement of relaxation of phenylephrine contracted aortal rings.
(§2) The experiments explaining the mechanisms responsible for vasodilation induced by MNIC^+Cl^− were carried out in the same system of isolated vascular vessels. In order to determine the contribution of sGC and KATP channels in the vasodilating activity of the compound, the effects of an inhibitor of ATP-dependent potassium channels—glibenclamide (GLB) at a concentration of 10 μM, and an inhibitor of soluble guanyl cyclase (sGC) 1H-[1,2,4]-oxadiazole[4,3-a]quinoxalin-1-one (ODQ) at a concentration of 10 μM on this vasodilating activity were investigated in two set of experiments. In these experiments, MNIC^+Cl^− was used at the concentrations causing about 80-90% vasodilation, as determined in the experiment described above. […]

isolated rat aorta = test: Vasodilating effect on phenylephrine contracted isolated rat aortal rings; conditions: isolated rat aorta with preserved endothelial function; concentrations range from tens to hundreds μmol/l
Protocol: as §1

[6] = system: soluble guanyl cyclase (sGC); test: Effect of sGC inhibitor ODQ on vasodilatating activity in isolated rat aortal rings
Protocol: as §1, §2

degree of binding to heparin [1]	degree of binding to heparin [2]	Structure (SMILES)	ability to release NO [3]	second-order rate constant for the reaction of hydrated electron with the MNIC+ cation [4]	effect of addition of GLB after ODQ pre-incubation on reversal of the ODQ effect ([5]; GLB 10 μM added after ODQ 10 μM)	effect of pre-incubation with GLB on vasodilatating activity ([5]; GLB 10 μM, MNIC+Cl− at concentrations causing about 80-90% vasodilation)	vasodilating activity (relaxation of phenylephrine contracted aortal rings) (isolated rat aorta)	effect of further addition of ODQ after GLB pre-incubation on vasodilatating activity ([6]; ODQ 10 μM added after GLB 10 μM)	effect of pre-incubation with ODQ on vasodilatating activity ([6]; ODQ 10 μM, MNIC+Cl− at concentrations causing about 80-90% vasodilation)
39%	50%	C[n+]1cccc(C(N)=O)c1 [1-methylnicotinamide, reference compound]							
47%	30%	C[n+]1cccc(C(=O)NCCO[N+](=O)[O-])c1.[Cl-] [MNIC^+Cl^−, 1-Methyl-N′-(2-nitroxyethyl)nicotinamide chloride]	releases NO	4.17e+10 to 1e+11 M⁻¹ s⁻¹	no further influence	had no influence	concentration-dependent vasodilating activity	inhibition of vasodilatating activity	inhibited vasodilatating activity
